Assay results from PubChem BioAssay (NCI).
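Here, GI50 denotes the concentration required for 50% inhibition of growth. The concentration for full growth arrest is given as TGI.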

Tests used:
Test in all cases: NCI anticancer screen, dose series, 384-well format
NCI-H226 lung = system: NCI-H226 lung
NCI-H23 lung = system: NCI-H23 lung
NCI-H322M lung = system: NCI-H322M lung
NCI-H460 NSCLC = system: NCI-H460 NSCLC
NCI-H522 lung = system: NCI-H522 lung
NCI/ADR-RES ovarian = system: NCI/ADR-RES ovarian
OVCAR-3 ovarian = system: OVCAR-3 ovarian
OVCAR-4 ovarian = system: OVCAR-4 ovarian
OVCAR-5 ovarian = system: OVCAR-5 ovarian
OVCAR-8 ovarian = system: OVCAR-8 ovarian
PC-3 prostate = system: PC-3 prostate
RPMI-8226 leukemia = system: RPMI-8226 leukemia
RXF 393 renal = system: RXF 393 renal
SF-268 CNS = system: SF-268 CNS
SF-295 CNS = system: SF-295 CNS
SF-539 CNS = system: SF-539 CNS
SK-MEL-28 melanoma = system: SK-MEL-28 melanoma
SK-MEL-5 melanoma = system: SK-MEL-5 melanoma
SK-OV-3 ovarian = system: SK-OV-3 ovarian
SN12C renal = system: SN12C renal
SNB-19 CNS = system: SNB-19 CNS
SNB-75 CNS = system: SNB-75 CNS
SW-620 colon = system: SW-620 colon
TK-10 renal = system: TK-10 renal
U251 glioblastoma = system: U251 glioblastoma
UACC-257 melanoma = system: UACC-257 melanoma
UACC-62 melanoma = system: UACC-62 melanoma
UO-31 renal = system: UO-31 renal

In the case of `N#CCCNc1nonc1-c1nc2ccccc2n1CC(=O)c1ccc(NC(=O)[C@@H](N)CCCCN)cc1`, the TGI (NCI-H226 lung) is reported as 41.9 µM, the GI50 (NCI-H23 lung) is reported as 0.0218 µM and the TGI (NCI-H23 lung) is reported as 0.0526 µM. The GI50 (NCI-H322M lung) was 0.073 µM, the TGI (NCI-H322M lung) was over 100 µM and the GI50 (NCI-H460 NSCLC) was 0.0221 µM. The TGI (NCI-H460 NSCLC) was 0.0473 µM, the GI50 (NCI-H522 lung) was 0.0177 µM and the TGI (NCI-H522 lung) was 0.037 µM. For the same compound, the GI50 (NCI/ADR-RES ovarian) was 0.0182 µM, the TGI (NCI/ADR-RES ovarian) was 0.0351 µM and the GI50 (OVCAR-3 ovarian) was 0.0199 µM. It also gave a TGI (OVCAR-3 ovarian) of 0.0457 µM, a GI50 (OVCAR-4 ovarian) of 0.0861 µM and a TGI (OVCAR-4 ovarian) of 66.3 µM. It also gave a GI50 (OVCAR-5 ovarian) of 0.12 µM, a TGI (OVCAR-5 ovarian) of over 100 µM and a GI50 (OVCAR-8 ovarian) of 0.032 µM. It also gave a TGI (OVCAR-8 ovarian) of 0.117 µM, a GI50 (PC-3 prostate) of 0.0389 µM and a TGI (PC-3 prostate) of 0.948 µM. The GI50 (RPMI-8226 leukemia) was 0.0192 µM, the TGI (RPMI-8226 leukemia) was 0.0354 µM and the GI50 (RXF 393 renal) was 0.0208 µM. It also gave a TGI (RXF 393 renal) of 0.053 µM, a GI50 (SF-268 CNS) of 0.0136 µM and a TGI (SF-268 CNS) of 0.0474 µM. For the same compound, the GI50 (SF-295 CNS) was 0.0263 µM, the TGI (SF-295 CNS) was 0.0714 µM and the GI50 (SF-539 CNS) was 0.02 µM. For the same compound, the TGI (SF-539 CNS) was 0.0457 µM, the GI50 (SK-MEL-28 melanoma) was 0.0781 µM and the TGI (SK-MEL-28 melanoma) was 46.3 µM. For the same compound, the GI50 (SK-MEL-5 melanoma) was 0.0209 µM, the TGI (SK-MEL-5 melanoma) was 0.0571 µM and the GI50 (SK-OV-3 ovarian) was 0.0399 µM. For the same compound, the TGI (SK-OV-3 ovarian) was 16.2 µM, the GI50 (SN12C renal) was 0.0452 µM and the TGI (SN12C renal) was 2.17 µM. It also gave a GI50 (SNB-19 CNS) of 0.037 µM, a TGI (SNB-19 CNS) of over 100 µM and a GI50 (SNB-75 CNS) of 0.0387 µM. For the same compound, the TGI (SNB-75 CNS) was 66.6 µM, the GI50 (SW-620 colon) was 0.0424 µM and the TGI (SW-620 colon) was 88.4 µM. The GI50 (TK-10 renal) was 0.0834 µM, the TGI (TK-10 renal) was 93 µM and the GI50 (U251 glioblastoma) was 0.0328 µM. For the same compound, the TGI (U251 glioblastoma) was 0.148 µM, the GI50 (UACC-257 melanoma) was 0.0591 µM and the TGI (UACC-257 melanoma) was 22.6 µM. For the same compound, the GI50 (UACC-62 melanoma) was 0.031 µM, the TGI (UACC-62 melanoma) was 0.344 µM and the GI50 (UO-31 renal) was 0.0601 µM. It also gave a TGI (UO-31 renal) of 11.3 µM.
